From patent US20200239530A1, “COMPOUNDS AND METHODS OF MODULATING PROTEIN DEGRADATION” (Vividion Therapeutics, Inc., priority 2017, published 2020)
Where two headings read alike, the source gives them in different places.

Legend:
Format in all cases: binding
UniProt Q13829 = target: T1, UniProt Q13829 (Homo sapiens, UniProt Q13829); experiment: Cysteine liganding, probe competition
T1 construct: 200 μL of lysate containing 5 mg/ml proteome was treated with 2 μL of 100× compound stock; endogenous in cells
T1 sequence (Q13829 1-316): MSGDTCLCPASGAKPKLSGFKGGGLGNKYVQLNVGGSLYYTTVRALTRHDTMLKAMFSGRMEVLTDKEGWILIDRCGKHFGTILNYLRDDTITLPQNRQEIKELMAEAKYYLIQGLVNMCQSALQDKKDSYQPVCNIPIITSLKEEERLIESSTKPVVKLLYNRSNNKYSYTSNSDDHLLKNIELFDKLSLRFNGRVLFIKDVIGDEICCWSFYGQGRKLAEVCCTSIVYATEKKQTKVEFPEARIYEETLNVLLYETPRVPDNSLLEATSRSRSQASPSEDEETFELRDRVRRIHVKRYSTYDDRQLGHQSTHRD
From the text: (§1) The following 96-well sample prep protocol was used for sample preparation.

Q9H1A4 = target: T2, Q9H1A4 (Homo sapiens, UniProt Q9H1A4); experiment: Competitive cysteine profiling, probe competition (Table 2B)
T2 construct: Cells were resuspended in cold PBS on ice and sonicated with a probe sonicator to achieve lysis; endogenous in cells
T2 sequence (Q9H1A4 whole entry): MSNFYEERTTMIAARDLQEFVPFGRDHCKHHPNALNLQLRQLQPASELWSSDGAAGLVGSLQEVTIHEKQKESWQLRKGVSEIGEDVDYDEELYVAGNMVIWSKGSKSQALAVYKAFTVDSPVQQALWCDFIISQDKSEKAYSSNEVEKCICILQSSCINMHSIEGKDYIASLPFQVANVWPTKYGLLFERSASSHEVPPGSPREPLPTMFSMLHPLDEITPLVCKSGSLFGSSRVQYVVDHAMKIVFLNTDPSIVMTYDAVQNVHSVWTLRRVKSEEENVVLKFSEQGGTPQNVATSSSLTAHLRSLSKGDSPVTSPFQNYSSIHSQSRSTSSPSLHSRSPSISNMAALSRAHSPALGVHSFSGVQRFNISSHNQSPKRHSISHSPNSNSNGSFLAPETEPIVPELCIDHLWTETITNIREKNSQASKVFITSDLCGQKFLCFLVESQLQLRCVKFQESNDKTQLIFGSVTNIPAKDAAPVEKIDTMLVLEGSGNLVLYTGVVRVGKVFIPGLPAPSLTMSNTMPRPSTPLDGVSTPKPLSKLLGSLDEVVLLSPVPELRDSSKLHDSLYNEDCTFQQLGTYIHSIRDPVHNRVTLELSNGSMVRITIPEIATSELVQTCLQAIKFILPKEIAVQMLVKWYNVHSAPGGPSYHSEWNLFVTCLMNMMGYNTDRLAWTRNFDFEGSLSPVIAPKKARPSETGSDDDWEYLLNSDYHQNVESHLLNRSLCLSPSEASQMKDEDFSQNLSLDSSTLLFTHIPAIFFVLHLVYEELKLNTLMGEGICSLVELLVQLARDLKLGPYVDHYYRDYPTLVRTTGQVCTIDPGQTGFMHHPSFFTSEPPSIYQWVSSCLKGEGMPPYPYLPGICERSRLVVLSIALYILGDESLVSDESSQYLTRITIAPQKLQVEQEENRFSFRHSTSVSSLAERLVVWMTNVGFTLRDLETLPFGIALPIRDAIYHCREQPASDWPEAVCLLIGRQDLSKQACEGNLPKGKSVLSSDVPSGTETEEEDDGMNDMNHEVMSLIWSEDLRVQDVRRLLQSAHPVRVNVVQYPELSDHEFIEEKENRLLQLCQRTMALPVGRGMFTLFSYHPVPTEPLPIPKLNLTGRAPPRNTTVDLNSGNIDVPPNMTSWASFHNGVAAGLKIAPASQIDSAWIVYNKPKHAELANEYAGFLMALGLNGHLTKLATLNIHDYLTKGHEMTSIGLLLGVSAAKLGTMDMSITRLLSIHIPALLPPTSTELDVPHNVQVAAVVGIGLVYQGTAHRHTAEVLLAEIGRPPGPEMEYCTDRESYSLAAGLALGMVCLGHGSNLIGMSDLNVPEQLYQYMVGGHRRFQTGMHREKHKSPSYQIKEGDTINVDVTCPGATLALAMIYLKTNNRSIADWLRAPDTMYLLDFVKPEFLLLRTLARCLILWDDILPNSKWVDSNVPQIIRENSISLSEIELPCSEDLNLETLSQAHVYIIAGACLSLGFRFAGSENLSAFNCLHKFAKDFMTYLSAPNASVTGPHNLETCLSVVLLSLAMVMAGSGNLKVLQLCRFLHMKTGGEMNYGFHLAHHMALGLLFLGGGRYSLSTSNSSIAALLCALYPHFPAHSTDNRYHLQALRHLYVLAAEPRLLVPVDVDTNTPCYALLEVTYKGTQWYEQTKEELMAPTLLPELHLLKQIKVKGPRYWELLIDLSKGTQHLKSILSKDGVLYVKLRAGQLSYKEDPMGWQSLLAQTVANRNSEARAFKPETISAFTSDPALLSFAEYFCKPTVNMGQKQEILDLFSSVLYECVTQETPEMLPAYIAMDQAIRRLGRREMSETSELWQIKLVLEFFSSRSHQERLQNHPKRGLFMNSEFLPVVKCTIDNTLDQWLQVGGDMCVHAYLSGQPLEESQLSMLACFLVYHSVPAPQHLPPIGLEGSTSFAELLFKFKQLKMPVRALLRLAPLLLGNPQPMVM
From the text: as §1

Q9P203 = target: T3, Q9P203 (Homo sapiens, UniProt Q9P203); experiment: as above
T3 construct: 200 μL of lysate containing 5 mg/ml proteome was treated with 2 μL of 100× compound stock; endogenous in cells
T3 sequence (Q9P203 1-1132): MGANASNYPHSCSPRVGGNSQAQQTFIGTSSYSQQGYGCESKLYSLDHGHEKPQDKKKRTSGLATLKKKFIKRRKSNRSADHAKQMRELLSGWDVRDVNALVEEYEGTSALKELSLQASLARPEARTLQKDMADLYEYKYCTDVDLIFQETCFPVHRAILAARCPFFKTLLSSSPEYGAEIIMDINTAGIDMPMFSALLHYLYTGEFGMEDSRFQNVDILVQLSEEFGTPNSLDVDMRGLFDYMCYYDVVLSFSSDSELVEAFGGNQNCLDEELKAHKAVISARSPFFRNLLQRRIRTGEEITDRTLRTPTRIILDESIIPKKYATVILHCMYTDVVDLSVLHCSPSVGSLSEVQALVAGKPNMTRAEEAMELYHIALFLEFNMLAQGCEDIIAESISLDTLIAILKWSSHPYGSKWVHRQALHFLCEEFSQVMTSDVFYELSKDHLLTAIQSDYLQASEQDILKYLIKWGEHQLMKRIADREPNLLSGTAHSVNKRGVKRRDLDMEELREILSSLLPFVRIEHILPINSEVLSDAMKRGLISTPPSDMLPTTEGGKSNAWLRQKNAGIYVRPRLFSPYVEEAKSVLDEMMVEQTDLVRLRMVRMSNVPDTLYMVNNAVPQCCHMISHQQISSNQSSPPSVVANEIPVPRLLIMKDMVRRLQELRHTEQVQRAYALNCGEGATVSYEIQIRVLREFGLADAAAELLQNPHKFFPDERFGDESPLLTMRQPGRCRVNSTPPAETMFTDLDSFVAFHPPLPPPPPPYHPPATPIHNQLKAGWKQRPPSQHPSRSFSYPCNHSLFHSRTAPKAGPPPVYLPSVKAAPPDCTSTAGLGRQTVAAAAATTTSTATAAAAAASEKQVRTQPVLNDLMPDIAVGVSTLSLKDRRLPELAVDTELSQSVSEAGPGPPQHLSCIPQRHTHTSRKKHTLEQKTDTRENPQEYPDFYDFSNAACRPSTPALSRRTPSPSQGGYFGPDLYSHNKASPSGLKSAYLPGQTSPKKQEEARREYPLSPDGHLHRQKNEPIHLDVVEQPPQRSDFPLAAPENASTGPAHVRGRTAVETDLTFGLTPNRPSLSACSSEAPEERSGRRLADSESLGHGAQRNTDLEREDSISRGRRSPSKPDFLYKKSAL
From the text: as §1

Q9C0C7 = target: T4, Q9C0C7 (Homo sapiens, UniProt Q9C0C7); experiment: as above
T4 construct: Cells were resuspended in cold PBS on ice and sonicated with a probe sonicator to achieve lysis; endogenous in cells
T4 sequence (Q9C0C7 1-1298): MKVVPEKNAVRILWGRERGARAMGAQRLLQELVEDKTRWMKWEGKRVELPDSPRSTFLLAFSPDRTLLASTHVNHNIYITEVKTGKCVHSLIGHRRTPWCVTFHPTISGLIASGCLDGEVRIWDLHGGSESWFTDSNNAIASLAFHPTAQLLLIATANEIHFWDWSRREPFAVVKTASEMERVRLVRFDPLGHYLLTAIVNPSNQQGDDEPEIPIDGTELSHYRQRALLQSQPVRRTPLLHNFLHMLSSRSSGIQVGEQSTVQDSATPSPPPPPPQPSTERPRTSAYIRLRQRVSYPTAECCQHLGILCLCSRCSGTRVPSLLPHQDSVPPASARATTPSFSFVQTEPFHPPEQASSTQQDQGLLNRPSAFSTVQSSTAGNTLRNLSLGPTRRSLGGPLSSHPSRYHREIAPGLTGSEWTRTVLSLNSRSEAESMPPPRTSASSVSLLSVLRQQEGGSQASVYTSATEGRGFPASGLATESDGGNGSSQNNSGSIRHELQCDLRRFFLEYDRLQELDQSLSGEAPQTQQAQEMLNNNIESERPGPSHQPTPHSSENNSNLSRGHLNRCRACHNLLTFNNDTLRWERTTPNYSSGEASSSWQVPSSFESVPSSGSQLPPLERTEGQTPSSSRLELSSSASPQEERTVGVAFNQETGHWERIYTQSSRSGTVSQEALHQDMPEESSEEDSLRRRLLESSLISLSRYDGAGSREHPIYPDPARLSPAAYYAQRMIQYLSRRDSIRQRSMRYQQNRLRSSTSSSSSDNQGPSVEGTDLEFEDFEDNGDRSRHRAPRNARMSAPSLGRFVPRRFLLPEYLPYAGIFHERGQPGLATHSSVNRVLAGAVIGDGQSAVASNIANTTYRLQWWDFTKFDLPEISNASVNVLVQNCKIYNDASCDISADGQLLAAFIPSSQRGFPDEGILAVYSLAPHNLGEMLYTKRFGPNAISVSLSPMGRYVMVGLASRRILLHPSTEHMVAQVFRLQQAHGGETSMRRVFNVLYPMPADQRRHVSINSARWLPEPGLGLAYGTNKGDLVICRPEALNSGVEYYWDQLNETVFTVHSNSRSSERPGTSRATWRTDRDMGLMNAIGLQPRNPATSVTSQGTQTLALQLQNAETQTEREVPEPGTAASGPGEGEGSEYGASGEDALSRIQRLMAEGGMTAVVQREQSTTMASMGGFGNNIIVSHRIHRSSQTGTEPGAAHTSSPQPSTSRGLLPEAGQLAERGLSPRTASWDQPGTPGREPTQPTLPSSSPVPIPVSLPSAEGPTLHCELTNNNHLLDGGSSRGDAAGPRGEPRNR
From the text: as §1

[1] = 100 uM, read-out: percent_inhibition
[2] = read-out: KB02_100 uM_percent_inhibition
[3] = read-out: KB05_100 uM_percent_inhibition

| SMILES | percent_inhibition (UniProt Q13829; 100 uM) | inhibition at 100 µM (UniProt Q13829; [1]) | percent_inhibition (UniProt Q13829; 500 uM) | inhibition at 500 µM (UniProt Q13829; 500 uM, read-out: percent_inhibition) | KB02_100 uM_percent_inhibition (Q9H1A4; 100 uM) | inhibition at 100 µM (Q9H1A4; [2]) | KB02_500 uM_percent_inhibition (Q9P203; 500 uM) | inhibition at 500 µM (Q9P203; read-out: KB02_500 uM_percent_inhibition) | KB02_100 uM_percent_inhibition (Q9C0C7; 100 uM) | inhibition at 100 µM (Q9C0C7; [2]) | inhibition at 100 µM (Q9H1A4; [3]) | KB05_100 uM_percent_inhibition (Q9C0C7; 100 uM) | inhibition at 100 µM (Q9C0C7; [3]) | KB03_500 uM_percent_inhibition (Q9P203; 500 uM) |
| --- | --- | --- | --- | --- | --- | --- | --- | --- | --- | --- | --- | --- | --- | --- |
| COc1ccc2c(c1)CCCN2C(=O)CCl [KB02] | 4% | 8% | 9% | 15% | 21% | 24% | 17% | 12% | 49% | 48% |  |  |  |  |
| C=CC(=O)N(c1ccccc1)c1ccc(Br)cc1 [KB05] |  | 7% |  |  |  |  |  |  |  |  | 29% | 25% | 23% |  |
| O=C(CCl)Nc1cc(C(F)(F)F)cc(C(F)(F)F)c1 [KBO3] |  |  |  |  |  |  |  |  |  |  |  |  |  | 13% |
